Publication PMC7606612, “Identification of HMGA2 inhibitors by AlphaScreen-based ultra-high-throughput screening assays” (Scientific Reports, 2020)
Values joined by “and” are separate entries in the source; they are usually repeats but may differ in a detail not shown here. Identical values can stand only once.

Columns and labels:
HMGA2-DNA interactions [1] = biological target: T1, HMGA2-DNA interactions (Mus musculus, UniProt P52927); assay: Protein-DNA interaction ELISA (PDI-ELISA) assay; type: binding, mammalian; conditions: inhibition of HMGA2-DNA interactions, PDI-ELISA
T1 construct: made in house
T1 sequence (P52927 2-108 limits assumed): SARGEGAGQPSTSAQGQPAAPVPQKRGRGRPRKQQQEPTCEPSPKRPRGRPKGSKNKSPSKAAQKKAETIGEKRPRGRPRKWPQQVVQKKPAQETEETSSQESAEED
Description: The PDI-ELSA assays were described previously[33] and used to determine the inhibition IC50 against HMGA2-DNA interactions. The apparent inhibitory IC50 values were obtained using the following equation: y=min+(max-min/1+10^((x-logIC50)×Hillslope) , where x, y, max, and min represent the inhibitor’s concentration, the inhibition level, the maximum inhibition value, and the minimum inhibition value, respectively.

HMGA2-DNA interactions [2] = biological target: T1, HMGA2-DNA interactions; assay: AlphaScreen primary uHTS assay of His-tagged HMGA2 binding to biotin-labeled DNA oligomer FL814; design: species or system mammalian
Experimental: To address these limitations, we established a new assay using AlphaScreen technology. The assay entails binding a biotin-labeled DNA oligomer FL814 and His-tagged HMGA2 to streptavidin-coated donor beads and nickel chelate (Ni-NTA) acceptor beads, respectively (Fig. 1). A series of DNA binding studies were performed to determine the optimal conditions for the AlphaScreen Primary Assay (Fig. S1a–d). […] These two inhibitors are readily available for purchase and served as positive controls for HMGA2-DNA interaction inhibition in the assay.
Using a Labcyte Echo 555 acoustic dispenser 5 nL of DMSO were added to columns 1–4 and 45–48 of a white 1536 well plate, while 5 nL of 2 mM compounds in DMSO were added to columns 5–44. Using a Beckman BioRAPTR FRD bulk reagent dispenser 1 µL of assay buffer (30 mM Citrate, 300 mM NaCl, and 0.005% Tween 20) was added to columns 1 and 2. Next 1 µL of assay buffer containing 125 nM HMGA2 was added to columns 3–48 with a Beckman BioRAPTR FRD bulk reagent dispenser. Finally, 1 µL of assay buffer containing 25 nM FL814 was added to every well of the plate using a Beckman BioRAPTR FRD bulk reagent dispenser. The plate was then centrifuged at 200 × g for 1 min. After 30 min at room temperature, 2 µL of bead buffer (10 mM HEPES, 300 mM NaCl and 0.005% Tween 20) containing 20 µg/mL anti-6xHIS acceptor beads and 20 µg/mL streptavidin donor beads were dispensed into every well using a Beckman BioRAPTR FRD bulk reagent dispenser. The plates were then centrifuged at 200 × g for 1 min. After 1 h at room temperature the plates were read on a Perkin Elmer Envision multimode plate reader in AlphaScreen mode.

IC50 (HMGA2-DNA interactions [1]): 2780 ± 100 nM
inhibition at 5 µM (HMGA2-DNA interactions [2]; LOPAC1280 screen, final concentration of 5 µM): ≥ 50%
inhibition of HMGA2-DNA interactions (in words) (HMGA2-DNA interactions [2]; confirmed hits that do not bind to DNA): strongly inhibit HMGA2-DNA interactions
IC50 (HMGA2-DNA interactions [2]; titration, HMGA2-FL814 interactions, Fig. 3a): 2580 nM and 2600 nM
SMILES: Cc1ccc(C(=O)Nc2ccc(S(=O)(=O)O)c3cc(S(=O)(=O)O)cc(S(=O)(=O)O)c23)cc1NC(=O)c1cccc(NC(=O)Nc2cccc(C(=O)Nc3cc(C(=O)Nc4ccc(S(=O)(=O)O)c5cc(S(=O)(=O)O)cc(S(=O)(=O)O)c45)ccc3C)c2)c1 [suramin]
